Measurements taken from ChEMBL document CHEMBL1131583, “Structure-based design and synthesis of lipophilic 2,4-diamino-6-substituted quinazolines and their evaluation as inhibitors of dihydrofolate reductases and potential antitumor agents” (J Med Chem, 1998).

Tests used:
Dihydrofolate reductase [1] = target: T1, Dihydrofolate reductase (Lactobacillus casei, UniProt P00381); experiment: Inhibitory activity against Dihydrofolate reductase from Lactobacillus casei ( lcDHFR); design: species or system Lacticaseibacillus casei
Dihydrofolate reductase [2] = target: T2, Dihydrofolate reductase (Rattus norvegicus, UniProt Q920D2); experiment: Inhibitory activity against Dihydrofolate reductase from rat liver (rlDHFR)
T2 sequence (Q920D2 whole entry): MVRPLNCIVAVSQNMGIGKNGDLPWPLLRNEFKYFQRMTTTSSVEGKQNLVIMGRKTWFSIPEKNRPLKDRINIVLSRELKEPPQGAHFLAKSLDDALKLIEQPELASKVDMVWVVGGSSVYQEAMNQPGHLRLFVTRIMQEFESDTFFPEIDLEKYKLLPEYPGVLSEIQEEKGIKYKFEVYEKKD

Dihydrofolate reductase [3] = target: T3, Dihydrofolate reductase (Pneumocystis carinii, UniProt P16184)
T3 sequence (P16184 whole entry): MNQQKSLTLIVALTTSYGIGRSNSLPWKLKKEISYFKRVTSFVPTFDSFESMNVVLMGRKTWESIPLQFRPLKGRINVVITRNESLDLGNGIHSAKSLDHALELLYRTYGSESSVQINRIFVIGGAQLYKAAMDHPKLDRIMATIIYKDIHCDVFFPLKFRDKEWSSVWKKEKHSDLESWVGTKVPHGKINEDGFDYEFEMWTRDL
Description: Inhibitory activity against Dihydrofolate reductase from Pneumocystis carinii (pcDHFR)

[4] = target: T4, Bifunctional dihydrofolate reductase-thymidylate synthase (Toxoplasma gondii, UniProt Q07422); experiment: Inhibition of recombinant Dihydrofolate reductase from Toxoplasma gondii (tgDHFR)
T4 sequence (Q07422 whole entry): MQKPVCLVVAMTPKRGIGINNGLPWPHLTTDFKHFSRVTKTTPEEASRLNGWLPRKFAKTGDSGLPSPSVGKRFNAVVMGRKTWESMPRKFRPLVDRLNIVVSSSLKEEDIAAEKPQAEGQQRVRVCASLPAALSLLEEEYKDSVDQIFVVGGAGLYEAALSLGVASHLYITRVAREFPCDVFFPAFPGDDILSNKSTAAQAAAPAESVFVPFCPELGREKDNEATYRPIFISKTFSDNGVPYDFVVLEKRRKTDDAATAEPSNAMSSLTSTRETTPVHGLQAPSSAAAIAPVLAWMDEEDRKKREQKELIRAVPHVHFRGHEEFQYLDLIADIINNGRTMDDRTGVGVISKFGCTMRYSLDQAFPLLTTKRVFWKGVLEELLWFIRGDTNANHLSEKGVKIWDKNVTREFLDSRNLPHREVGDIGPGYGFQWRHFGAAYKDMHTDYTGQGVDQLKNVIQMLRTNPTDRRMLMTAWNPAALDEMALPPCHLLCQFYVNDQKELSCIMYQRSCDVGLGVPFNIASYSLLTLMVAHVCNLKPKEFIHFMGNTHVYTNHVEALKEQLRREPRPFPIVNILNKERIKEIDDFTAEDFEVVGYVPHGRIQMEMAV

[5] = target: T4, Bifunctional dihydrofolate reductase-thymidylate synthase
Description: Inhibitory activity against Dihydrofolate reductase from Toxoplasma gondii (tgDHFR)

Dihydrofolate reductase [6] = target: T5, Dihydrofolate reductase (Homo sapiens, UniProt P00374)
T5 sequence (P00374 whole entry): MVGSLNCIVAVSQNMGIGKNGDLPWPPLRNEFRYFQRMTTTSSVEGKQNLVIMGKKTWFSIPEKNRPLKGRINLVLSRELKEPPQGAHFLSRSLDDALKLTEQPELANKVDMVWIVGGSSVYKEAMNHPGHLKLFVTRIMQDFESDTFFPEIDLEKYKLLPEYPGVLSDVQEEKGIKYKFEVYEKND
Description: Inhibitory activity against Dihydrofolate reductase from recombinant human (hDHFR)

Dihydrofolate reductase [7] = target: T1, Dihydrofolate reductase
Description: Inhibitory activity against Dihydrofolate reductase from Lactobacillus casei (lcDHFR)

[8] = target: T4, Bifunctional dihydrofolate reductase-thymidylate synthase; experiment: Inhibitory activity against recombinant Dihydrofolate reductase from Toxoplasma gondii (tgDHFR)
[9] = Partition coefficient (logP); assay type: physicochemical; settings: octanol/water

T1 sequence (P00381 whole entry): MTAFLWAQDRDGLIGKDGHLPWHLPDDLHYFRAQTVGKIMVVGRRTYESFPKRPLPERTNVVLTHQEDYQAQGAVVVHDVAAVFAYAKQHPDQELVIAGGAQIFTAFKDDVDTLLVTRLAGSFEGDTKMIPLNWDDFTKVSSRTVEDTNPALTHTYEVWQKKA

| IC50 (Dihydrofolate reductase [2]) | IC50 (Dihydrofolate reductase [3]) | IC50 (Dihydrofolate reductase [6]) | IC50 (Dihydrofolate reductase [7]) | logP [9] | Structure (SMILES) | IC50 (Dihydrofolate reductase [1]) | IC50 [4] | IC50 [5] | IC50 [8] |
| --- | --- | --- | --- | --- | --- | --- | --- | --- | --- |
| 900 nM | 6800 nM | 23000 nM | 2800 nM | – | COc1cc(CNc2ccc3nc(N)nc(N)c3c2)cc(OC)c1OC | – | 920 nM | 84 nM | – |
| 22700 nM | 116000 nM | 25000 nM | 37000 nM | – | COc1cc(OC)c(CNc2ccc3nc(N)nc(N)c3c2)c(OC)c1 | – | – | – | – |
| 1600 nM | 5400 nM | – | 1600 nM | – | COc1cc(OC)c(OC)cc1CNc1ccc2nc(N)nc(N)c2c1 | – | 540 nM | 124 nM | – |
| 1200 nM | 4400 nM | – | 2100 nM | – | COc1ccc(CNc2ccc3nc(N)nc(N)c3c2)c(OC)c1 | – | 780 nM | 170 nM | – |
| 1300 nM | 4900 nM | 27000 nM | 2000 nM | – | COc1ccc(CNc2ccc3nc(N)nc(N)c3c2)c(OC)c1OC | – | 810 nM | 190 nM | – |
| 840 nM | 2200 nM | 28000 nM | 2300 nM | – | COc1cc(CNc2ccc3nc(N)nc(N)c3c2)cc(OC)c1 | – | 840 nM | 120 nM | – |
| 19 nM | 52 nM | 140 nM | 59 nM | – | COc1ccc(CN(C)c2ccc3nc(N)nc(N)c3c2)c(OC)c1OC | – | 5.4 nM | 17 nM | – |
| – | 87 nM | – | – | – | COc1ccc(OC)c(CN(C)c2ccc3nc(N)nc(N)c3c2)c1 | 130 nM | 3.9 nM | 30 nM | – |
| – | – | – | 260 nM | – | COc1cc(NCc2ccc3nc(N)nc(N)c3c2C)cc(OC)c1OC [TRIMETREXATE] | – | – | – | – |

The remaining lines, values behind:

| Structure (SMILES) | IC50 (Dihydrofolate reductase [2]) | IC50 (Dihydrofolate reductase [3]) | IC50 (Dihydrofolate reductase [6]) | IC50 (Dihydrofolate reductase [7]) | logP [9] | IC50 (Dihydrofolate reductase [1]) | IC50 [4] | IC50 [5] | IC50 [8] |
| --- | --- | --- | --- | --- | --- | --- | --- | --- | --- |
| COc1cc(CN(C)c2ccc3nc(N)nc(N)c3c2)cc(OC)c1 | 8.2 nM | 23.8 nM | 11 nM | – | – | 37 nM | 4.7 nM | 9.3 nM | – |
| CN(Cc1cccc2c1CCCC2)c1ccc2nc(N)nc(N)c2c1 | 17 nM | 17 nM | 27 nM | 21 nM | – | – | – | – | – |
| Nc1nc(N)c2cc(NCc3ccccc3)ccc2n1 | 660 nM | 8700 nM | 2400 nM | 2700 nM | – | – | – | 320 nM | 1400 nM |
| COc1ccc(CN(C)c2ccc3nc(N)nc(N)c3c2)c(OC)c1 | 43 nM | 100 nM | 50 nM | 120 nM | – | – | 3.9 nM | 39 nM | – |
| COc1ccc(OC)c(CNc2ccc3nc(N)nc(N)c3c2)c1 | 1100 nM | 4600 nM | 28000 nM | 3000 nM | – | – | 1100 nM | 160 nM | – |
| COc1ccc(OC)c(CN(C)c2cnc3nc(N)nc(N)c3c2)c1 | – | – | – | – | 1.87 | – | – | – | – |
| COc1ccc(OC)c(CNc2cnc3nc(N)nc(N)c3c2)c1 | – | – | – | – | 1.32 | – | – | – | – |
| COc1cc(CNc2cnc3nc(N)nc(N)c3c2)cc(OC)c1OC | – | – | – | – | 0.89 | – | – | 395 nM | – |
| COc1cc(CN(C)c2cnc3nc(N)nc(N)c3c2)cc(OC)c1 | – | – | – | – | 1.87 | – | – | – | – |
